SMILES strings stand for the structures. Bounds are passed on as bounds.

The test system of this experiment is production of TNF by monocytes activated with bacterial lipopolysaccharide (LPS). Nature of the experiment: Lipopolysaccharide-activated monocyte TNF production assay. The settings on record: Homo sapiens; whole blood monocyte assay (LPS induced TNF release). It is filed as cell-based. The procedure:
Test compounds were evaluated in vitro for the ability to inhibit the production of TNF by monocytes activated with bacterial lipopolysaccharide (LPS). Fresh residual source leukocytes (a byproduct of plateletpheresis) were obtained from a local blood bank, and peripheral blood mononuclear cells (PBMCs) were isolated by density gradient centrifugation on Ficol-Paque Plus (Pharmacia). PBMCs were suspended at 2×10^6/mL in DMEM supplemented to contain 2% FCS, 10 mM, 0.3 mg/mL […], 100 U/mL penicillin G and […] streptomycin sulfate (complete media). Cells were plated into Falcon flat bottom, 96 well culture plates (200 μL/well) and cultured overnight at 37° C. and 6% CO2. Non-adherent cells were removed by washing with 200 μl/well of fresh medium.
Test compounds were dissolved in […]. Compound stock solutions were prepared to an initial concentration of […]. Stocks were diluted initially to 20-200 μM in complete media. Nine two-fold serial dilutions of each compound were then prepared in complete medium.
One hundred microliters of each test compound dilution were added to microtiter wells containing adherent monocytes and 100 μL complete medium. Monocytes were cultured with test compounds for 60 min at which time 25 μL of complete medium containing 30 ng/mL lipopolysaccharide from E. coli K532 were added to each well. Cells were cultured an additional 4 hrs. Culture supernatants were then removed and TNF presence in the supernatants was quantified using an ELISA.
Flat bottom, 96 well Corning High Binding ELISA plates were coated overnight (4° C.) with 150 μL/well of 3 μg/mL murine anti-human TNF-α MAb (R&D Systems #MAB210). Wells were then blocked for 1 h at room temperature with 200 μL/well of CaCl2-free ELISA buffer supplemented to contain 20 mg/mL BSA (standard ELISA buffer: […], 150 mM NaCl, 2 mM CaCl2, 0.15 mM thimerosal, pH 7.4). Plates were washed and replenished with 100 μL of test supernatants (diluted 1:3) or standards. Standards consisted of eleven 1.5-fold serial dilutions from a stock of I ng/mL recombinant human TNF (R&D Systems). Plates were incubated at room temperature for 1 h on orbital shaker (300 rpm), washed and replenished with 100 μL/well of 0.5 μg/mL goat anti-human TNF-α (R&D systems #AB-210-NA) biotinylated at a 4:1 ratio. Plates were incubated for 40 min, washed and replenished with 100 μL/well of alkaline phosphatase-conjugated streptavidin (Jackson ImmunoResearch #016-050-084) at 0.02 μg/mL. Plates were incubated 30 min, washed and replenished with 200 μL/well of 1 mg/mL of p-nitrophenyl phosphate. After 30 min, plates were read at 405 nm on a Vmax plate reader.
Standard curve data were fit to a second order polynomial and unknown TNF-α concentrations determined from their OD by solving this equation for concentration. TNF concentrations were then plotted vs. test compound concentration using a second order polynomial. This equation was then used to calculate the concentration of test compounds causing a 50% reduction in TNF production.
Take `Cc1ccc(C(N)=O)cc1-c1ccc2c(N3CCNC[C@H]3C)nncc2c1` [Example 143, 4-methyl-3-{1-[(2R)-2-methylpiperazin-1-yl]phthalazin-6-yl}benzamide]: the IC50 was no more than 5 µM.

For the molecule `Cc1cc(S(N)(=O)=O)ccc1-c1nncc2cc(Oc3ccc(F)cc3)ccc12` [Example 364, 4-[6-(4-fluorophenoxy)phthalazin-1-yl]-3-methylbenzenesulfonamide], the IC50 is no more than 5 µM.

As to `Fc1ccc(Oc2ccc3c(N4C[C@@H]5C[C@H]4CO5)nncc3c2)cc1` [Example 350, (1S,4S)-5-[6-(4-fluorophenoxy)phthalazin-1-yl]-2-oxa-5-azabicyclo[2.2.1]heptane], the IC50 is no more than 5 µM.

Regarding `Cc1ccc(C(=O)NC2CC2)cc1-c1ccc2c(N3CCC(C(N)=O)CC3)nncc2c1` [Example 114, 1-(6-{5-[(cyclopropylamino)carbonyl]-2-methylphenyl}phthalazin-1-yl)piperidine-4-carboxamide], the IC50 is no more than 5 µM.

`CCNC(=O)c1ccc(C)c(-c2ccc3c(NC(C)C)nncc3c2)c1` [Example 117, N-ethyl-3-[1-(isopropylamino)phthalazin-6-yl]-4-methylbenzamide] registered an IC50 of no more than 5 µM.

`Cc1ccc(C(=O)NC2CC2)cc1-c1ccc2c(N[C@H](C)c3ccccc3)nncc2c1` [Example 193, N-cyclopropyl-4-methyl-3-(1-{[(1R)-1-phenylethyl]amino}phthalazin-6-yl)benzamide]: the IC50 was no more than 5 µM.

The molecule `CCOc1cc(Cl)ccc1-c1nncc2cc(-c3cc(C(N)=O)ccc3C)ccc12` [Example 238, 3-[1-(4-chloro-2-ethoxyphenyl)phthalazin-6-yl]-4-methylbenzamide] had an IC50 of no more than 5 µM.

Molecule `Cc1ccc(-c2nncc3cc(-c4cc(C(N)=O)ccc4C)ccc23)c(Cl)n1` [Example 211, 3-[1-(2-chloro-6-methylpyridin-3-yl)phthalazin-6-yl]-4-methylbenzamide] came in with an IC50 of no more than 5 µM.

`Cc1ccc(C(=O)NC2CC2)cc1-c1ccc2c(N3CCC[C@H]3C(C)C)nncc2c1` [Example 293, N-cyclopropyl-3-{1-[(2S)-2-isopropylpyrrolidin-1-yl]phthalazin-6-yl}-4-methylbenzamide]: the IC50 was no more than 5 µM.

Take `CCNc1noc2c(-c3ccc4c(NC(C)C)nncc4c3)c(C)ccc12` [Example 389, 6-[3-(ethylamino)-6-methyl-1,2-benzisoxazol-7-yl]-N-isopropylphthalazin-1-amine]: the IC50 was no more than 5 µM.

Consider `Cc1ccc(C(=O)NC2CC2)cc1-c1ccc2c(N3CCCC[C@@H]3C)nncc2c1` [Example 97, N-cyclopropyl-4-methyl-3-{1-[(2S)-2-methylpiperidin-1-yl]phthalazin-6-yl}benzamide], for which the IC50 is no more than 5 µM.

`CC[C@H](C)Oc1nncc2cc(-c3cc(C(N)=O)ccc3C)ccc12` [Example 322, 4-methyl-3-(1-{[(1S)-1-methylpropyl]oxy}phthalazin-6-yl)benzamide] registered an IC50 of no more than 5 µM.

As to `Cc1cnc(C(=O)NC2CC2)cc1-c1ccc2c(N3C[C@@H](C)OC[C@H]3C)nncc2c1` [Example 113, N-cyclopropyl-4-{1-[(2R,5R)-2,5-dimethylmorpholin-4-yl]phthalazin-6-yl}-5-methylpyridine-2-carboxamide], the IC50 was no more than 5 µM.

Take `Cc1ccc(C(N)=O)cc1-c1ccc2c(N3CCSCC3)nncc2c1` [Example 128, 4-methyl-3-(1-thiomorpholin-4-ylphthalazin-6-yl)benzamide]: the IC50 was no more than 5 µM.

In turn, `Cc1ccc(-c2nnn[nH]2)cc1-c1ccc2c(N3CCOCC3)nncc2c1` [Example 77, 6-[2-Methyl-5-(1H-tetraazol-5-yl)phenyl]-1-morpholin-4-ylphthalazine] yielded an IC50 of no more than 5 µM.

The molecule `Cc1ccc2c(N)noc2c1-c1ccc2c(N3CCOC[C@@H]3C)nncc2c1` [Example 387, 6-methyl-7-{1-[(3S)-3-methylmorpholin-4-yl]phthalazin-6-yl}-1,2-benzisoxazol-3-amine] showed an IC50 of no more than 5 µM.

Regarding `Cc1ccc(C(N)=O)cc1-c1ccc2c(N3CC[S+]([O-])CC3)nncc2c1` [Example 60, 4-methyl-3-[1-(1-oxidothiomorpholin-4-yl)phthalazin-6-yl]benzamide], the IC50 was no more than 5 µM.

For the molecule `Cc1ccc(C(N)=O)cc1-c1ccc2c(Oc3cccnc3C)nncc2c1` [Example 300, 4-methyl-3-{1-[(2-methylpyridin-3-yl)oxy]phthalazin-6-yl}benzamide], the IC50 is no more than 5 µM.

`COc1nncc2cc(-c3cc(C(N)=O)ccc3C)ccc12` [Example 118, 3-(1-methoxyphthalazin-6-yl)-4-methylbenzamide] yielded an IC50 of no more than 5 µM.

`COc1ncccc1-c1nncc2cc(-c3cc(C(N)=O)ccc3C)ccc12` [Example 228, 3-[1-(2-methoxypyridin-3-yl)phthalazin-6-yl]-4-methylbenzamide]: the IC50 was no more than 5 µM.

Molecule `CC(C)Nc1noc2c(-c3ccc4c(N5CCOC[C@@H]5C)nncc4c3)c(Cl)ccc12` [Example 402, 6-chloro-N-isopropyl-7-{1-[(3S)-3-methylmorpholin-4-yl]phthalazin-6-yl}-1,2-benzisoxazol-3-amine] registered an IC50 of no more than 5 µM.

Molecule `Cc1ccc(C(N)=O)cc1-c1ccc2c(N3CCNC(=O)CC3)nncc2c1` [Example 277, 4-methyl-3-[1-(5-oxo-1,4-diazepan-1-yl)phthalazin-6-yl]benzamide] displayed an IC50 of no more than 5 µM.

For the molecule `Cc1ccc2c(NC3CC3)noc2c1-c1ccc2c(NC(C)C)nncc2c1` [Example 370, 6-[3-(cyclopropylamino)-6-methyl-1,2-benzisoxazol-7-yl]-N-isopropylphthalazin-1-amine], the IC50 was no more than 5 µM.

Molecule `Cc1ccc(C(=O)NC2CC2)cc1-c1ccc2c(-c3ccc(F)cc3C)nncc2c1` [Example 286, N-cyclopropyl-3-[1-(4-fluoro-2-methylphenyl)phthalazin-6-yl]-4-methylbenzamide] registered an IC50 of no more than 5 µM.

`CCNC(=O)c1ccc(C)c(-c2ccc3c(N4CCOCC4)nncc3c2)c1` [Example 41, N-ethyl-4-methyl-3-(1-morpholinophthalazin-6-yl)benzamide] showed an IC50 of no more than 5 µM.

Take `Cc1ccc(C(=O)NC2CC2)cc1-c1ccc2c(-c3cccnc3Cl)nncc2c1` [Example 233, 3-[1-(2-chloropyridin-3-yl)phthalazin-6-yl]-N-cyclopropyl-4-methylbenzamide]: the IC50 was no more than 5 µM.

Consider `Fc1ccc(Oc2ccc3c(-c4ccc(CN5CCOCC5)cc4)nncc3c2)cc1` [Example 333, 6-(4-fluorophenoxy)-1-[4-(morpholin-4-ylmethyl)phenyl]phthalazine], for which the IC50 is no more than 5 µM.

Regarding `Cc1ccc(C(=O)NC2CC2)cc1-c1ccc2c(N3CCN4CCC[C@H]4C3)nncc2c1` [Example 274, 3-{1-[(8aS)-hexahydropyrrolo[1,2-a]pyrazin-2(1H)-yl]phthalazin-6-yl}-N-cyclopropyl-4-methylbenzamide], the IC50 is no more than 5 µM.

`C[C@H]1COCCN1c1nncc2cc(-c3c(Cl)ccc4c(NCC(F)(F)F)noc34)ccc12` [Example 400, 6-chloro-7-{1-[(3S)-3-methylmorpholin-4-yl]phthalazin-6-yl}-N-(2,2,2-trifluoroethyl)-1,2-benzisoxazol-3-amine] displayed an IC50 of no more than 5 µM.

Consider `Cc1ccc(C(=O)NC2CC2)cc1-c1ccc2c(-c3ccncc3C)nncc2c1` [Example 263, N-cyclopropyl-4-methyl-3-[1-(3-methylpyridin-4-yl)phthalazin-6-yl]benzamide], for which the IC50 was no more than 5 µM.

On to `Cc1ccc(C(N)=O)cc1-c1ccc2c(-c3ccc(OC(C)C)cc3C)nncc2c1` [Example 227, 3-[1-(4-isopropoxy-2-methylphenyl)phthalazin-6-yl]-4-methylbenzamide], for which the IC50 is no more than 5 µM.

For the molecule `Cc1ccc(-c2nncc3cc(-c4cc(C(N)=O)ccc4C)ccc23)c(Cl)c1` [Example 221, 3-[1-(2-chloro-4-methylphenyl)phthalazin-6-yl]-4-methylbenzamide], the IC50 is no more than 5 µM.

In turn, `Cc1ccc(C(=O)NC2CC2)cc1-c1ccc2c(N)nncc2c1` [Example 141, 3-(1-aminophthalazin-6-yl)-N-cyclopropyl-4-methylbenzamide] showed an IC50 of no more than 5 µM.

The record behind these values is US7759337B2, “Phthalazine compounds and methods of use” (Amgen Inc., priority 2005, dated 2010).
